In patent US20040138104A1, “Peptides” (priority 2003, published 2004) one finds IC50 data, which are given here for 5 compounds.

Usually IC50 stands for the concentration that inhibits the measured activity by half.

Where two headings read alike, the source gives them in different places.

The target in one experiment is YopH (Yersinia pestis, UniProt O68720). Briefly: biochemical.
In a further experiment the target is T1, PTB1B (Homo sapiens, UniProt P18031).
T1 sequence (P18031 1-435): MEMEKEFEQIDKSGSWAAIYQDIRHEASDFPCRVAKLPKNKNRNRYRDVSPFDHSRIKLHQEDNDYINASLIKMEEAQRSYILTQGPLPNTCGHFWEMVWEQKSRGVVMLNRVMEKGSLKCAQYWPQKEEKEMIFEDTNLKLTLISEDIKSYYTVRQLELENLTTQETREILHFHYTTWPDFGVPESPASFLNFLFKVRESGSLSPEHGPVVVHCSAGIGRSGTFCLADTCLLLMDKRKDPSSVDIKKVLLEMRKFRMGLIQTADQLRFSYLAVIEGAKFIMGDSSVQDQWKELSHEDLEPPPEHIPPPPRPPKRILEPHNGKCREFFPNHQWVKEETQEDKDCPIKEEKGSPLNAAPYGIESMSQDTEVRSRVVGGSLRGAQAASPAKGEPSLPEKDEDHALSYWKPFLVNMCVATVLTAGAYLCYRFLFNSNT
The class given is biochemical. Conditions: read-out: IC50 Values in μM Against Various Enzymes: PTB1B.

Where [1] appears, read: read-out: IC50 Values in μM Against Various Enzymes: YopH.

Sequence of YopH (O68720 1-468): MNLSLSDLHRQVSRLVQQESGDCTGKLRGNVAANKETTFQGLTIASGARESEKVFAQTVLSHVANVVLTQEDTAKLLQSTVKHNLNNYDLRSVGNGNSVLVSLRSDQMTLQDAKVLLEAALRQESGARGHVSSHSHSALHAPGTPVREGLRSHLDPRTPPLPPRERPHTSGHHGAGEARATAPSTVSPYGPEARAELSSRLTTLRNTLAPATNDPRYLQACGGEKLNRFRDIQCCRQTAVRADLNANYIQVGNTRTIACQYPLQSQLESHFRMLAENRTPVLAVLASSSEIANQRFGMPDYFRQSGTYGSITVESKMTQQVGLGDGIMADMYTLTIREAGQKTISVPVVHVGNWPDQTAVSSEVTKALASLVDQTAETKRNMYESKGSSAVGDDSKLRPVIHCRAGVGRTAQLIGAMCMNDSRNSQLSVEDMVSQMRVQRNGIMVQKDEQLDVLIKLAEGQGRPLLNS

With `CC(C)C[C@H](NC(=O)[C@H](Cc1ccc(OCC(=O)O)cc1)NC(=O)[C@H](CCC(=O)OCc1ccccc1)NC(=O)OCC1c2ccccc2-c2ccccc21)C(N)=O` [TB 26], the IC50 on YopH (setting [1]) is 2.8 ± 1.1 µM; at PTB1B, 4.6 ± 2 µM.
The like results for `CC(C)C[C@H](NC(=O)[C@H](Cc1ccc(OCC(=O)O)c(OCC(=O)O)c1)NC(=O)[C@H](CCC(=O)OCc1ccccc1)NC(=O)OCC1c2ccccc2-c2ccccc21)C(N)=O` [TB 29] were, in that order, 19.4 ± 3.3 µM and 19.4 ± 3.6 µM.
Consider `CC(C)C[C@H](NC(=O)[C@H](Cc1ccc(C(F)(C(=O)O)C(=O)O)cc1)NC(=O)[C@H](CCC(=O)OCc1ccccc1)NC(=O)OCC1c2ccccc2-c2ccccc21)C(N)=O` [TB 34], for which the midpoint of inhibition at YopH, the IC50, lay at 3 ± 0.7 µM.
As to `CC(C)C[C@H](NC(=O)[C@H](Cc1ccc(OCC(=O)O)cc1)NC(=O)[C@H](CCC(=O)OCc1ccccc1)NC(=O)OCc1ccccc1)C(N)=O` [TB 39], the IC50 on YopH (setting [1]) amounted to 119 ± 14 µM; at PTB1B it was 72 ± 14 µM.
`CC(C)C[C@H](NC(=O)[C@H](Cc1ccc(OCC(=O)O)cc1)NC(=O)[C@H](CCC(=O)OCc1ccccc1)NC(=O)OCCc1ccccc1)C(N)=O` [TB 40] displayed an IC50 at YopH of 80 ± 8.5 µM.
